Test results reported in ChEMBL document CHEMBL4507257, “Data for DCP probe ABT-100” (2021).

Key:
[1] = test system: Receptor-type tyrosine-protein kinase FLT3 (Homo sapiens), P36888 [D835Y]; details: Compound concentration 1000.0 nM
[2] = target: Serine/threonine-protein kinase Chk1 (Homo sapiens) (UniProt O14757); details: Compound concentration 1000.0 nM
[3] = test system: Mast/stem cell growth factor receptor Kit (Homo sapiens), P10721 [D816H]; details: Compound concentration 1000.0 nM
[4] = target: Serine/threonine-protein kinase 38-like (Homo sapiens) (UniProt Q9Y2H1); details: Compound concentration 1000.0 nM
[5] = target: Mitogen-activated protein kinase 7 (Homo sapiens) (UniProt Q13164); details: Compound concentration 1000.0 nM
[6] = target: Mitogen-activated protein kinase kinase kinase kinase 3 (Homo sapiens) (UniProt Q8IVH8); details: Compound concentration 1000.0 nM
[7] = target: Glycogen synthase kinase-3 beta (Homo sapiens) (UniProt P49841); details: Compound concentration 1000.0 nM
[8] = target: Cyclin-dependent kinase 2 (Homo sapiens) (UniProt P24941); details: Compound concentration 1000.0 nM
[9] = test system: Epidermal growth factor receptor (Homo sapiens), P00533 [L858R]; details: Compound concentration 1000.0 nM
[10] = target: Mitogen-activated protein kinase kinase kinase 7 (Homo sapiens) (UniProt O43318); details: Compound concentration 1000.0 nM
[11] = target: Cyclin-dependent kinase 5 (Homo sapiens) (UniProt Q00535); details: Compound concentration 1000.0 nM
[12] = target: Cyclin-dependent kinase 19 (Homo sapiens) (UniProt Q9BWU1); details: Compound concentration 1000.0 nM
[13] = target: Myosin light chain kinase, smooth muscle (Homo sapiens) (UniProt Q15746); details: Compound concentration 1000.0 nM
[14] = target: LIM domain kinase 1 (Homo sapiens) (UniProt P53667); details: Compound concentration 1000.0 nM
[15] = target: Muscle, skeletal receptor tyrosine-protein kinase (Homo sapiens) (UniProt O15146); details: Compound concentration 1000.0 nM
[16] = target: Homeodomain-interacting protein kinase 4 (Homo sapiens) (UniProt Q8NE63); details: Compound concentration 1000.0 nM
Chain of Homeodomain-interacting protein kinase 4 (Homo sapiens) (Q8NE63 whole entry): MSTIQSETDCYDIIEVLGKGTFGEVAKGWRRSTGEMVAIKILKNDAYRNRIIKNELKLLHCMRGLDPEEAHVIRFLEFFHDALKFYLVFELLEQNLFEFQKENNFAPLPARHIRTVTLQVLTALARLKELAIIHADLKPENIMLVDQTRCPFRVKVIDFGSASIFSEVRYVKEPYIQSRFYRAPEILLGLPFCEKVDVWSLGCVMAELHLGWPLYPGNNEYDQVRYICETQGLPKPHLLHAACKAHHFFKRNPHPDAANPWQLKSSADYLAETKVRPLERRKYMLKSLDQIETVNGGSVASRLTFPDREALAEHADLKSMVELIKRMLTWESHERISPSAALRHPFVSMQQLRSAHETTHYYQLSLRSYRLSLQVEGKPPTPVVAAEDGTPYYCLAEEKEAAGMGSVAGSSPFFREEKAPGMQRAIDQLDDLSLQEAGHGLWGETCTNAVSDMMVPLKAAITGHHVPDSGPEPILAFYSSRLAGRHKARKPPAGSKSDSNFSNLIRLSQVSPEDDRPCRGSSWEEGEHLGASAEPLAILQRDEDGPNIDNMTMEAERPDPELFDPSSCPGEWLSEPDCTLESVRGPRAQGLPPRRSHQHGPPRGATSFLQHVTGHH

[17] = test system: Tyrosine-protein kinase ABL1 (Homo sapiens), P00519 [Q252H]; details: Compound concentration 1000.0 nM
[18] = target: Ephrin type-A receptor 1 (Homo sapiens) (UniProt P21709); details: Compound concentration 1000.0 nM
Chain of Ephrin type-A receptor 1 (Homo sapiens) (P21709 whole entry): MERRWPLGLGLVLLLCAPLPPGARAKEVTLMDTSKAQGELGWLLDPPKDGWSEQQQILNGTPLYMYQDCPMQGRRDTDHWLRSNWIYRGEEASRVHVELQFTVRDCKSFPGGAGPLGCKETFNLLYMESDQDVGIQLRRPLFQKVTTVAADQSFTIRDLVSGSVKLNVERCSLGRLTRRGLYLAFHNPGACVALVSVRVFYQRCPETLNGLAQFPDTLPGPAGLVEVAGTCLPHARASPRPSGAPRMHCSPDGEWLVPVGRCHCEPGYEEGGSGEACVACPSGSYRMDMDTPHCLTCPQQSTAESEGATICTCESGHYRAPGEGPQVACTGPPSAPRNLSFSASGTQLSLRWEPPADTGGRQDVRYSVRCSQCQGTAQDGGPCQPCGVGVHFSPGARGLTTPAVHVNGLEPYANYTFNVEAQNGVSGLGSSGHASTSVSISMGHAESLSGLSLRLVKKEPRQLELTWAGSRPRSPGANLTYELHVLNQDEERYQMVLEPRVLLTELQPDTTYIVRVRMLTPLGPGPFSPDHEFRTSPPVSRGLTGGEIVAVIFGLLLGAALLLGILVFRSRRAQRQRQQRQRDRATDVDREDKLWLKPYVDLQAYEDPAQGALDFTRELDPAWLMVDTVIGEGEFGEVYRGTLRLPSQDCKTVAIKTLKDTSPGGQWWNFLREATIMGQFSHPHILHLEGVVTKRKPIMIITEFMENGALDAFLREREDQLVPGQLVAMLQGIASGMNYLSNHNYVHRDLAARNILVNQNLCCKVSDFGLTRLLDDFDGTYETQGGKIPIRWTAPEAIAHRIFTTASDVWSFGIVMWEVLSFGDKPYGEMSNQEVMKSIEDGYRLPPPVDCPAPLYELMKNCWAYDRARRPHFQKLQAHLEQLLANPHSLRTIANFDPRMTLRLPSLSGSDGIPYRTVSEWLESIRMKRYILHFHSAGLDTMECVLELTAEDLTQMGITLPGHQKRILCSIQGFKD

[19] = test system: Tyrosine-protein kinase ABL1 (Homo sapiens), P00519 [H396P]; details: Compound concentration 1000.0 nM
[20] = target: Serine/threonine-protein kinase Nek4 (Homo sapiens) (UniProt P51957); details: Compound concentration 1000.0 nM
[21] = target: Mitogen-activated protein kinase kinase kinase 15 (Homo sapiens) (UniProt Q6ZN16); details: Compound concentration 1000.0 nM
[22] = target: Mitogen-activated protein kinase kinase kinase 4 (Homo sapiens) (UniProt Q9Y6R4); details: Compound concentration 1000.0 nM
Chain of Mitogen-activated protein kinase kinase kinase 4 (Homo sapiens) (Q9Y6R4 whole entry): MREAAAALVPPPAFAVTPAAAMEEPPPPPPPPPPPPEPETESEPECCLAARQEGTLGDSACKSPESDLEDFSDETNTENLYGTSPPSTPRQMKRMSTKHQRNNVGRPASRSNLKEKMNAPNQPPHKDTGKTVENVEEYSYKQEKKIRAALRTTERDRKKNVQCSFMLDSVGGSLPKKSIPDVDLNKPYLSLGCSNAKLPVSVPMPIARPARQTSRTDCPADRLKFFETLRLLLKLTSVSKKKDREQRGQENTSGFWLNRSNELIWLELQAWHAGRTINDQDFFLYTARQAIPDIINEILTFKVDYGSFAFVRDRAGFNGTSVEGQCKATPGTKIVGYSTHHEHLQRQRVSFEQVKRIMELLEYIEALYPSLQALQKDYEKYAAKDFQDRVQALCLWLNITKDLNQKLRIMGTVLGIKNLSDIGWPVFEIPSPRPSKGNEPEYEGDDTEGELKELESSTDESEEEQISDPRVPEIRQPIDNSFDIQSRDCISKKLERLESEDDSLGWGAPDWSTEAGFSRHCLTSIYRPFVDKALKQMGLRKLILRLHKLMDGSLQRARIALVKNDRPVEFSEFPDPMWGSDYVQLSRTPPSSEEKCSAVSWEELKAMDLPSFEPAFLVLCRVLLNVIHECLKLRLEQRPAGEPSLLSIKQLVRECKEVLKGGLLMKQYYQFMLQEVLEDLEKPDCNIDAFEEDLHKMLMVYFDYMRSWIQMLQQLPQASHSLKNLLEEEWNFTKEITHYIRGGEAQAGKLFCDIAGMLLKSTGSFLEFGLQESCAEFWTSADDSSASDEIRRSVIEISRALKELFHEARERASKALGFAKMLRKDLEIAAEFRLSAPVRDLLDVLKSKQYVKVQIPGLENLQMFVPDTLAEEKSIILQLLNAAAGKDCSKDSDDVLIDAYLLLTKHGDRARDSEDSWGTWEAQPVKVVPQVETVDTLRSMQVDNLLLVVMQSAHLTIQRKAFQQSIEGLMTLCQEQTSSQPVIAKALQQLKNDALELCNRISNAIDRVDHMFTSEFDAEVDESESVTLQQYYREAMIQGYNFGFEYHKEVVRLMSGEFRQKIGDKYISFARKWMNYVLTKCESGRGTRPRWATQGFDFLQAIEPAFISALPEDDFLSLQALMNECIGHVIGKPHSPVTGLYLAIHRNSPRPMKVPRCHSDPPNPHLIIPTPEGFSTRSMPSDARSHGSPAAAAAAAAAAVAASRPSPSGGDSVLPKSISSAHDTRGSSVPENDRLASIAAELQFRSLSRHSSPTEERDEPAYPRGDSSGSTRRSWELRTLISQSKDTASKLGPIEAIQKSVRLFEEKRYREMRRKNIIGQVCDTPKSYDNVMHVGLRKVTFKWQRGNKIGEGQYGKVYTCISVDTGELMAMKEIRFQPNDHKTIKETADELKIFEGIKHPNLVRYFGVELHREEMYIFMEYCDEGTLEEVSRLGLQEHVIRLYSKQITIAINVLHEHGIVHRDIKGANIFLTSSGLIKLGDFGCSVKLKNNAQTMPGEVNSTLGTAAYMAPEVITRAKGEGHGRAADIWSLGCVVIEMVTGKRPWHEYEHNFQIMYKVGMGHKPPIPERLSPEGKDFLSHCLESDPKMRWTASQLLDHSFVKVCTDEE

[23] = target: Calcium/calmodulin-dependent protein kinase kinase 1 (Homo sapiens) (UniProt Q8N5S9); details: Compound concentration 1000.0 nM
[24] = target: Calcium/calmodulin-dependent protein kinase type II subunit gamma (Homo sapiens) (UniProt Q13555); details: Compound concentration 1000.0 nM
[25] = target: Serine/threonine-protein kinase 10 (Homo sapiens) (UniProt O94804); details: Compound concentration 1000.0 nM
[26] = test system: Mast/stem cell growth factor receptor Kit (Homo sapiens), P10721 [A829P]; details: Compound concentration 1000.0 nM
[27] = target: D(3) dopamine receptor (Homo sapiens) (UniProt P35462); details: Compound concentration 10.0 uM
[28] = target: Mitogen-activated protein kinase 14 (Homo sapiens) (UniProt Q16539); details: Compound concentration 1000.0 nM
[29] = target: Cyclin-dependent kinase-like 1 (Homo sapiens) (UniProt Q00532); details: Compound concentration 1000.0 nM
Chain of Cyclin-dependent kinase-like 1 (Homo sapiens) (Q00532 whole entry): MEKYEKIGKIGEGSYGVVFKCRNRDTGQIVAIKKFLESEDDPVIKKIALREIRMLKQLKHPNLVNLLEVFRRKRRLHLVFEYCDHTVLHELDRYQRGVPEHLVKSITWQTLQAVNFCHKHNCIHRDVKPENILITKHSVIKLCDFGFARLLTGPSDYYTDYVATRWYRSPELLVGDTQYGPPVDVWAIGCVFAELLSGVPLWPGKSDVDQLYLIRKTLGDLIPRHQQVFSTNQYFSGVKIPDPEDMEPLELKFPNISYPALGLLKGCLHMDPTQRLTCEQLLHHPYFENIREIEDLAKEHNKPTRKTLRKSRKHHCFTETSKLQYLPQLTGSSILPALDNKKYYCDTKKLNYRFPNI

[30] = target: Membrane-associated tyrosine- and threonine-specific cdc2-inhibitory kinase (Homo sapiens) (UniProt Q99640); details: Compound concentration 1000.0 nM
[31] = target: Serine/threonine-protein kinase ULK2 (Homo sapiens) (UniProt Q8IYT8); details: Compound concentration 1000.0 nM
Chain of Serine/threonine-protein kinase ULK2 (Homo sapiens) (Q8IYT8 whole entry): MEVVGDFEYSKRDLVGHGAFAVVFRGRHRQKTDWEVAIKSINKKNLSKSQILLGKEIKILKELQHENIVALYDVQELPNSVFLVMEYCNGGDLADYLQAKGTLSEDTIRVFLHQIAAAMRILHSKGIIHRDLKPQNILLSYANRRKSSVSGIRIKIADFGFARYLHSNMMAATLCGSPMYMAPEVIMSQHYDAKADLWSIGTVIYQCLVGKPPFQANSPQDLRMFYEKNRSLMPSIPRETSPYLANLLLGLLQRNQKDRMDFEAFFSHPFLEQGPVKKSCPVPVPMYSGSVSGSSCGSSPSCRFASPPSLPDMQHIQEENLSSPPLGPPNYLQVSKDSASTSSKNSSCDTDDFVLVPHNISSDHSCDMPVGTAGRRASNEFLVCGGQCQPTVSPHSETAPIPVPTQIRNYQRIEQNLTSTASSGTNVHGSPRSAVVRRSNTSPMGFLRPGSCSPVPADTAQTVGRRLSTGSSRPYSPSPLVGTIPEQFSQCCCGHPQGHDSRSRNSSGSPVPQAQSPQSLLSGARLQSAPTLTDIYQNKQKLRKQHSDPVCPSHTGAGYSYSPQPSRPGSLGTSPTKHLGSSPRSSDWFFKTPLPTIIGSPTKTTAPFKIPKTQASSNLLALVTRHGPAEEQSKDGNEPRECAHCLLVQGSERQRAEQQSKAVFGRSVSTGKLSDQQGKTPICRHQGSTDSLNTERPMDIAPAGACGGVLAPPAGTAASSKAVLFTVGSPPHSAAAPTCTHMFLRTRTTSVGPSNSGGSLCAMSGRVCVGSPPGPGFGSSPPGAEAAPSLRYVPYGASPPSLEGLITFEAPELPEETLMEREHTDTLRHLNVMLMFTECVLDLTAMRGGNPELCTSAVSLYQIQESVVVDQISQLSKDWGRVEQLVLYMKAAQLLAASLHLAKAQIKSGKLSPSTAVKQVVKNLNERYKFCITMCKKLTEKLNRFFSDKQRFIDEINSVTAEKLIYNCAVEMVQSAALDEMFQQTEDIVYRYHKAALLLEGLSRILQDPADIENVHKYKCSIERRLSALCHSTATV

[32] = target: Tyrosine-protein kinase TXK (Homo sapiens) (UniProt P42681); details: Compound concentration 1000.0 nM
[33] = target: Dual specificity mitogen-activated protein kinase kinase 1 (Homo sapiens) (UniProt Q02750); details: Compound concentration 1000.0 nM
Chain of Dual specificity mitogen-activated protein kinase kinase 1 (Homo sapiens) (Q02750 whole entry): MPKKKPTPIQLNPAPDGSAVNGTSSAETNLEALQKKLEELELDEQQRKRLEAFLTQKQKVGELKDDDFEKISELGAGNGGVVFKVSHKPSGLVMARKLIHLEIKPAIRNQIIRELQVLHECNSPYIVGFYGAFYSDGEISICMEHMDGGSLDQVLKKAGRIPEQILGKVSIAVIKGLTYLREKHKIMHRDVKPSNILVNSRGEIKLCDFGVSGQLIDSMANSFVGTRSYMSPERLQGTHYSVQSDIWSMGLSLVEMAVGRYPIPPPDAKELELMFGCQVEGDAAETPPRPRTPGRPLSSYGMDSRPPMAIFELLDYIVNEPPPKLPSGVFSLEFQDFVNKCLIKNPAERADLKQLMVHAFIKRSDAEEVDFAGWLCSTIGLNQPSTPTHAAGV

[34] = target: Serine/threonine-protein kinase PAK 3 (Homo sapiens) (UniProt O75914); details: Compound concentration 1000.0 nM
[35] = target: Serine/threonine-protein kinase VRK2 (Homo sapiens) (UniProt Q86Y07); details: Compound concentration 1000.0 nM
[36] = target: Dual specificity mitogen-activated protein kinase kinase 3 (Homo sapiens) (UniProt P46734); details: Compound concentration 1000.0 nM
[37] = target: Glycogen synthase kinase-3 alpha (Homo sapiens) (UniProt P49840); details: Compound concentration 1000.0 nM
[38] = test system: Receptor-type tyrosine-protein kinase FLT3 (Homo sapiens), P36888 [N841I]; details: Compound concentration 1000.0 nM
[39] = target: Serine/threonine-protein kinase Sgk3 (Homo sapiens) (UniProt Q96BR1); details: Compound concentration 1000.0 nM
[40] = test system: Epidermal growth factor receptor (Homo sapiens), P00533 [G719S]; details: Compound concentration 1000.0 nM
[41] = target: Megakaryocyte-associated tyrosine-protein kinase (Homo sapiens) (UniProt P42679); details: Compound concentration 1000.0 nM
[42] = test system: Epidermal growth factor receptor (Homo sapiens), P00533 [UNDEFINED MUTATION]; details: Compound concentration 1000.0 nM
[43] = target: RAC-beta serine/threonine-protein kinase (Homo sapiens) (UniProt P31751); details: Compound concentration 1000.0 nM
[44] = target: Serine/threonine-protein kinase Sgk1 (Homo sapiens) (UniProt O00141); details: Compound concentration 1000.0 nM
[45] = test system: Tyrosine-protein kinase ABL1 (Homo sapiens), P00519 [M351T]; details: Compound concentration 1000.0 nM

Cn1cncc1[C@@](O)(COc1ccc(C#N)cc1-c1ccc(OC(F)(F)F)cc1)c1ccc(C#N)cc1 [A-108]
residual activity [1]: 78%
residual activity [2]: 100%
residual activity [3]: 100%
residual activity [4]: 87%
residual activity [5]: 93%
residual activity [6]: 100%
residual activity [7]: 100%
residual activity [8]: 89%
residual activity [9]: 100%
residual activity [10]: 67%
residual activity [11]: 96%
residual activity [12]: 64%
residual activity [13]: 99%
residual activity [14]: 100%
residual activity [15]: 100%
residual activity [16]: 100%
residual activity [17]: 84%
residual activity [18]: 93%
residual activity [19]: 88%
residual activity [20]: 90%
residual activity [21]: 83%
residual activity [22]: 80%
residual activity [23]: 100%
residual activity [24]: 98%
residual activity [25]: 100%
residual activity [26]: 100%
inhibition [27]: 18.1%
residual activity [28]: 100%
residual activity [29]: 89%
residual activity [30]: 100%
residual activity [31]: 100%
residual activity [32]: 85%
residual activity [33]: 89%
residual activity [34]: 91%
residual activity [35]: 95%
residual activity [36]: 100%
residual activity [37]: 100%
residual activity [38]: 100%
residual activity [39]: 100%
residual activity [40]: 74%
residual activity [41]: 100%
residual activity [42]: 100%
residual activity [43]: 78%
residual activity [44]: 100%
residual activity [45]: 6.2%

Cn1cncc1[C@](O)(COc1ccc(C#N)cc1-c1ccc(OC(F)(F)F)cc1)c1ccc(C#N)cc1 [ABT-100]
residual activity [1]: 95%
residual activity [2]: 97%
residual activity [3]: 77%
residual activity [4]: 65%
residual activity [5]: 93%
residual activity [6]: 100%
residual activity [7]: 93%
residual activity [8]: 95%
residual activity [9]: 86%
residual activity [10]: 100%
residual activity [11]: 92%
residual activity [12]: 84%
residual activity [13]: 88%
residual activity [14]: 89%
residual activity [15]: 93%
residual activity [16]: 86%
residual activity [17]: 100%
residual activity [18]: 38%
residual activity [19]: 91%
residual activity [20]: 100%
residual activity [21]: 90%
residual activity [22]: 90%
residual activity [23]: 77%
residual activity [24]: 94%
residual activity [25]: 100%
residual activity [26]: 79%
inhibition [27]: -9.46%
residual activity [28]: 100%
residual activity [29]: 82%
residual activity [30]: 100%
residual activity [31]: 100%
residual activity [32]: 87%
residual activity [33]: 100%
residual activity [34]: 96%
residual activity [35]: 70%
residual activity [36]: 78%
residual activity [37]: 62%
residual activity [38]: 91%
residual activity [39]: 100%
residual activity [40]: 79%
residual activity [41]: 98%
residual activity [42]: 93%
residual activity [43]: 81%
residual activity [44]: 76%
residual activity [45]: 100%
